From patent US12234207B2, “Halo-(3-(phenylsulfonyl)prop-1-enyl)pyridine derivative and use thereof” (Cureverse Incorporated, priority 2018, dated 2025)
Where “and” joins values, the source holds several entries; their conditions need not be identical. Identical values can stand only once.

Columns and labels:
[1] = background statement; cited from earlier work
hERG channel = hERG channel (Homo sapiens, UniProt Q12809); experiment: hERG channel-binding inhibition (fluorescent tracer polarization); settings: hERG channel-containing membrane
From the text: The human ether-a-go-go-related gene (hERG) ion channel is an important component of cardiac repolarization, and inhibitors of this channel can induce arrhythmia and sudden death. […] When a fluorescent hERG channel tracer binds to a membrane containing the hERG channel protein, the rotation of the tracer is restricted, thereby maintaining a high polarization state. However, when a competitive inhibitor binds to the hERG channel, the tracer is competitively pushed away from the membrane and depolarized as it loses its direction.

CYP 2C9 = molecular target: T1, CYP 2C9 (Homo sapiens, UniProt P11712); experiment: Inhibition of CYP activity in human liver microsomes, 2C9; format: in vitro ADME; settings: 10 μM compound, human liver microsomes 0.25 mg/mL, % activity relative to the negative control
T1 construct: from tissue; host or cells: human liver microsomes
Procedure: (§1) Thereafter, the reaction was terminated by adding an acetonitrile solution containing an internal standard substrate (terfenadine), followed by centrifugation (14,000 rpm, 4° C.) for 5 minutes. Subsequently, the supernatant was injected into the LC-MS/MS system, and the metabolites of the substrate drugs were simultaneously analyzed to evaluate the inhibitory ability of these compounds on drug metabolic enzymes. The metabolites of each CYP isoenzyme indicator drug generated through the above reaction were analyzed using the Shimadzu Nexera XR system and TSQ vantage (Thermo). A Kinetex C18 column was used as the HPLC column, and distilled water containing 0.1% formic acid and acetonitrile containing 0.1% formic acid were used as the mobile phase. The generated metabolites were quantified using the quantification mode of multiple reaction monitoring (MRM), and data were analyzed with Xcalibur (version 1.6.1).

CYP 2C19 = molecular target: T2, CYP 2C19 (Homo sapiens, UniProt P33261); experiment: Inhibition of CYP activity in human liver microsomes, 2C19; format: in vitro ADME; settings: 10 μM compound, human liver microsomes 0.25 mg/mL; % activity relative to the negative control
T2 construct: from tissue; host or cells: human liver microsomes
Procedure: as §1

CYP 3A4 = molecular target: T3, CYP 3A4 (Homo sapiens, UniProt P08684); experiment: Inhibition of CYP activity in human liver microsomes, 3A4; format: in vitro ADME; settings: 10 μM compound, human liver microsomes 0.25 mg/mL; % activity relative to the negative control
T3 construct: from tissue; host or cells: human liver microsomes
Procedure: as §1

Nrf2 [2] = experiment: Nrf2 functional cell-based assay (DisoveRx), luminescence; settings: relative to Compound 15
[3] = background statement; cited from earlier work; remark: listed apart in the source
Solubility in water = format: physicochemical
From the text: In the development of new drugs, the solubility of drugs is one of the very important factors associated with the bio-absorption rate. […] In addition, drugs with low solubility may crystallize in tissues or cause serious toxicity, and thus, the FDA requires additional research results on oral drugs with low solubility. Furthermore, low solubility may also be the biggest cause of failure in the development of candidate materials.

CYP 2D6 = molecular target: T4, CYP 2D6 (Homo sapiens, UniProt P10635); experiment: Inhibition of CYP activity in human liver microsomes, 2D6; format: in vitro ADME; settings: 10 μM compound, human liver microsomes 0.25 mg/mL; % activity relative to the negative control
T4 construct: from tissue; host or cells: human liver microsomes
Procedure: as §1

[4] = background statement, cited from earlier work
[5] = test system: MPTP-induced Parkinson's disease model; experiment: Coat-hanger test in MPTP-induced Parkinson's disease mice; format: in vivo, C57/BL6 mice; settings: orally 20 mg/mL once a day for 3 days from the day before MPTP; time limit 3 minutes
Procedure: (§2) A specifically designed animal experiment schedule is shown at the top of FIG. 3. […] The MPTP-induced Parkinson's disease model was prepared by injecting 20 mg/kg of MPTP intraperitoneally at 2-hour intervals a total of 4 times in a day. In the negative control group, physiological saline solution containing no MPTP was injected at the same time. In order to confirm whether or not Parkinson's disease was induced, motor impairment caused by dopaminergic neuronal cell death, known as the main symptom of Parkinson's disease, was confirmed by a vertical grid test and a coat-hanger test.
The coat-hanger test, which is another behavioral experiment that evaluates exercise ability, was conducted as follows, as shown in the bottom left of FIG. 3: when the mice were placed in the middle of a hanger 30 cm away from the floor, the mice moved toward a safe position on the top of the hanger while being hanged, and a score was assigned according to the position at the time point with a time limit of 3 minutes. The specific experimental method and the result are shown at the bottom of FIG. 3. As shown in the graph at the bottom of FIG. 3, most of the negative control moved to the top of the hanger, corresponding to 5 points, but in the case of the positive control, 2 to 3 points were recorded because the mice mainly stopped at both ends of the bottom of the hanger.

dopaminergic neurons = experiment: Tyrosine hydroxylase immunohistochemical staining of corpus striatum and substantia nigra, MPTP mice; format: in vivo, C57/BL6 mice; settings: Compound 15 orally
From the text: From the results of Experimental Example 8, the effect of restoring exercise ability by the compound of the present invention was confirmed. In order to confirm whether the recovery of such exercise ability was due to the neuroprotective effect of the compounds of the present invention, brains were excised from mice and analyzed by immunohistochemical staining using tyrosine hydroxylase used as a marker for dopaminergic neurons. As a site for analysis, the corpus striatum and substantia nigra, which are concentrated with dopaminergic neurons, were selected. Specifically, after anesthetizing the mice in the negative control group, the positive control group, and the experimental group with avertin, physiological saline and 4% formaldehyde were injected into the heart, and the brain was excised, which was sequentially immersed in 4% formaldehyde and 30% sucrose, and stored in the refrigerator for one day each. Thereafter, the tissue fragments of the corpus striatum and substantia nigra were obtained from the stored brain using a cryosectioning machine. The brain tissue fragments were stained by DAB staining using a tyrosine hydroxylase antibody, which is specifically expressed in dopaminergic neurons, by immunohistochemical staining, and observed with a microscope, and the results are shown in FIG. 4.

Nrf2 [6] = experiment: Western blot of Nrf2 in nuclear extract of BV2 cells; format: cell-based; settings: 0 μM to 10 μM, 6 hours, relative to Lamin B1
Procedure: Through Experimental Example 1, the activation of Nrf2 by the compounds of the present invention was indirectly confirmed. Thus, in order to directly confirm the effect of the compounds of the present invention on Nrf2 activation, Western blot was performed. […] Specifically, BV2 cells were loaded in a 25T flask at a density of 2×10^6 cells/flask in an amount of 4 mL and incubated in RPM1640 medium for 24 hours. […] The thus-incubated cells were recovered, and the nucleus and cytoplasmic extracts were separated. The thus-separated nuclear extract was electrophoresed by 10% SDS-PAGE, transferred to a PVDF membrane, and blocked with bovine serum albumin (BSA). Thereafter, the amount of Nrf2 protein in the nucleus was measured using an anti-Nrf2 antibody, and the results are shown in FIG. 1. The amount of Nrf2 was measured relative to Lamin B1, which refers to the same amount of nuclear extract.

GCLC, GCLM, and HO-1 = experiment: Western blot of Nrf2-related antioxidant enzymes in BV2 cells; format: cell-based; settings: 0 μM to 10 μM, 24 hours, relative to actin
From the text: As a transcription factor, Nrf2 acts to protect cells by increasing antioxidant enzymes in the nucleus. Through preceding Experimental Examples 1 and 6, the activation of Nrf2 by the compound of the present invention was confirmed directly or indirectly. Thus, whether the activated Nrf2 increases antioxidant enzymes was confirmed by measuring the amount of antioxidant enzymes using Western blot. As antioxidant enzymes to be detected, GCLC, GCLM, and HO-1, expression of which is known to increase due to Nrf2, were selected. Specifically, BV2 cells were loaded at a density of 5×10^5 cells/well in a 6-well plate in an amount of 1.5 mL, and incubated in RPM1640 medium for 24 hours. […] The thus-incubated cells were recovered and lysed to extract the total protein, and then subjected to electrophoresis by 10% SDS-PAGE. The total extract subjected to electrophoresis was transferred to a PVDF membrane and then blocked with bovine serum albumin. Thereafter, the amount of antioxidant enzymes expressed in cells was measured using antibodies corresponding to each antioxidant enzyme, and the results are shown in FIG. 2.

[7] = test system: MPTP-induced Parkinson's disease model; experiment: Vertical grid test in MPTP-induced Parkinson's disease mice; format: in vivo, C57/BL6 mice; settings: orally 20 mg/mL once a day for 3 days from the day before MPTP; test 6 days after MPTP
Procedure: as §2
The vertical grid test evaluates the time to climb down when an experimental animal model is placed on a vertical ladder. In the present invention, the time to turn towards the floor and the total time taken to climb down from the ladder were measured once the mice were placed on a ladder.

[8] = when administered into the body

T1 sequence (P11712 whole entry): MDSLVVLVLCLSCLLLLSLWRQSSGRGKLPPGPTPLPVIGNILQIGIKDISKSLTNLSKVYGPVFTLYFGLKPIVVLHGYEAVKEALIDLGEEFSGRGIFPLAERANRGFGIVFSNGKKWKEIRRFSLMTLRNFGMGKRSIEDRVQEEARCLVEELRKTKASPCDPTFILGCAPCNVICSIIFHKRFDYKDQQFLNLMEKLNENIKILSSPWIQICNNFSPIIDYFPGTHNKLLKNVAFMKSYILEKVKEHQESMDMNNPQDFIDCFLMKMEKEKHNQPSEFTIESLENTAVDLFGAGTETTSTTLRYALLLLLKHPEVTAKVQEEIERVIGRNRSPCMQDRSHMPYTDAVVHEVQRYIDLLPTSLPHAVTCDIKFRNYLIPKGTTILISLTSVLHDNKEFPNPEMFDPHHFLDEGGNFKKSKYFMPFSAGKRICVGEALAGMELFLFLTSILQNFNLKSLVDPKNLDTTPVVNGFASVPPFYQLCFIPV
Chain of hERG channel (Q12809 whole entry): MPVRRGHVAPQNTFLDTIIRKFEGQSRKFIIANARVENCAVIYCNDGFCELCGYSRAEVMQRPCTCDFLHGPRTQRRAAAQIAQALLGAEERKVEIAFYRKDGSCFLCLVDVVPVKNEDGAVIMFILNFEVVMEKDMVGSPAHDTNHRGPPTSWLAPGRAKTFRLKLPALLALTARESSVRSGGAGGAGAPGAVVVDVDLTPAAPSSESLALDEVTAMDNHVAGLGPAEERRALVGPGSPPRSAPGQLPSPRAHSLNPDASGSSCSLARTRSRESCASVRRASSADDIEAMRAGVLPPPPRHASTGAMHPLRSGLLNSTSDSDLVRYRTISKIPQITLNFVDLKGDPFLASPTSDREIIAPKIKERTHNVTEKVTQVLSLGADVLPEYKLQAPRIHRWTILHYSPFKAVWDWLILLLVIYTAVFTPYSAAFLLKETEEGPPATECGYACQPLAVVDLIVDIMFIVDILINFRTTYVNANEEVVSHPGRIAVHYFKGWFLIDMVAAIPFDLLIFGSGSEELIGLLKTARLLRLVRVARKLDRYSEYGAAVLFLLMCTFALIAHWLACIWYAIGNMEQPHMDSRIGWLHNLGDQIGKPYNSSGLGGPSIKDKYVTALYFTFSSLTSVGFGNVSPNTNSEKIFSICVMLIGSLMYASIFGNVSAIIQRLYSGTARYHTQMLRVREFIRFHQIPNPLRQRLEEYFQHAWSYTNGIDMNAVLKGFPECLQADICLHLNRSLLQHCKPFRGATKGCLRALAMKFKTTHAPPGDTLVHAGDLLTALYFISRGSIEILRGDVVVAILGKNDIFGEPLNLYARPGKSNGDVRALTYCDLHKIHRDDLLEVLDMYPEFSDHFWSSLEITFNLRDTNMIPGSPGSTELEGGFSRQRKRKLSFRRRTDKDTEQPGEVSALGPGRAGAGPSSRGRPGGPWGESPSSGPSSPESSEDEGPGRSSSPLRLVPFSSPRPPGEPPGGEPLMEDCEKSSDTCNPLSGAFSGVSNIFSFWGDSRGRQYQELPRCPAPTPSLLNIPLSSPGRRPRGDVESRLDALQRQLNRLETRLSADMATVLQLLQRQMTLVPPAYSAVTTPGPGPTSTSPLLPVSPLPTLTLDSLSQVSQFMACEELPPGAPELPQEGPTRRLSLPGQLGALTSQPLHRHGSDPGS
T4 sequence (P10635 whole entry): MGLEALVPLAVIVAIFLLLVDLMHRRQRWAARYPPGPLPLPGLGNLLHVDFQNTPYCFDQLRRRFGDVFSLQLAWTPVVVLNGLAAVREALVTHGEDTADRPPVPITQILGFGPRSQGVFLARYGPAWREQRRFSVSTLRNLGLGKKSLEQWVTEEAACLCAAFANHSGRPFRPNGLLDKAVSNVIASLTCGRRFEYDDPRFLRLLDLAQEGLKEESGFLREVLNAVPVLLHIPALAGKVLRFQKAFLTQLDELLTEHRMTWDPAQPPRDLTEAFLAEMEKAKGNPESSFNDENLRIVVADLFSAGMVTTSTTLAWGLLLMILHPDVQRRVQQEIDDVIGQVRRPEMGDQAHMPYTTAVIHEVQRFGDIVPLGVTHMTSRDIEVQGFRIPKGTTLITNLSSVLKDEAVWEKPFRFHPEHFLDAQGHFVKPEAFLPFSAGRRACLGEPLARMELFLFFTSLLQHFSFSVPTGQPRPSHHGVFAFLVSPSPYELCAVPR
T2 sequence (P33261 whole entry): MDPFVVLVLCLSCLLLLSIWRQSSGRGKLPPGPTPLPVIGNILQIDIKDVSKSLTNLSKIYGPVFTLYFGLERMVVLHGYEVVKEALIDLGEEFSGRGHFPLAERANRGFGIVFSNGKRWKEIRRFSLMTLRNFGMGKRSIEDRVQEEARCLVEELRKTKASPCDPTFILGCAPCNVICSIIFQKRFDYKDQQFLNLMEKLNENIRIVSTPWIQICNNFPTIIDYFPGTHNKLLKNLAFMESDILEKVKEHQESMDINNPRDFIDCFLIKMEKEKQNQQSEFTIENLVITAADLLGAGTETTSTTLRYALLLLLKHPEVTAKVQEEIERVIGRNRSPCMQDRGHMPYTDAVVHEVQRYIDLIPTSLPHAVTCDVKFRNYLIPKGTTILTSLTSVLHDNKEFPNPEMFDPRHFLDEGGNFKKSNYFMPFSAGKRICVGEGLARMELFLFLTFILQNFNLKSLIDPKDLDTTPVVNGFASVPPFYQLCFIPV
T3 sequence (P08684 whole entry): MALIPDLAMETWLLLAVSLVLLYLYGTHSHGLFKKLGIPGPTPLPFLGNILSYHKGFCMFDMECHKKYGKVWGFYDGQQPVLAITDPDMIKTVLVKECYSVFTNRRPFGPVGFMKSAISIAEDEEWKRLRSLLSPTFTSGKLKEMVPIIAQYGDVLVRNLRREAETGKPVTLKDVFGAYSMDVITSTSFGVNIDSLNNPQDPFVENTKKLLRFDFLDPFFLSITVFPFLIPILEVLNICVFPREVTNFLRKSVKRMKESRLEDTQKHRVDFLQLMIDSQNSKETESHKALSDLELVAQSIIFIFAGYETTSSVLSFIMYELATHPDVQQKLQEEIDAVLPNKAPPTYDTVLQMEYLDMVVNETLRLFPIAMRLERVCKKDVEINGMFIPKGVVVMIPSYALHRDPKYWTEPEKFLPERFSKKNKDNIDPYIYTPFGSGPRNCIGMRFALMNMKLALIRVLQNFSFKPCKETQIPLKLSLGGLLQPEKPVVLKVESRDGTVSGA

Structure (SMILES)	Time until dissipated when administered into the body [1] [h]	IC50 (hERG channel)	CYP 2C9 activity (CYP 2C9) [%]	CYP 2C9 activity (CYP 2C9; listed as Comparative Example 1) [%]	CYP 2C19 activity (CYP 2C19) [%]	CYP 3A4 activity (CYP 3A4) [%]	Effect of inducing Nrf2 activity as % of the level of Compound 15 (Nrf2 [2])	Solubility in water (in words) [3]	solubility (Solubility in water) [µg/mL]	CYP 2D6 activity (CYP 2D6) [%]	Cardiac toxicity [4]	Bioavailability [4, 8]	Drug metabolic stability [4, 8]	Coat-hanger test score, average [5] [points]	Tyrosine hydroxylase staining of corpus striatum and substantia nigra (dopaminergic neurons)	Amount of Nrf2 protein in the nucleus (Nrf2 [6])	Expression of Nrf2 and antioxidant enzymes GCLC, GCLM, and HO-1 (GCLC, GCLM, and HO-1)	Vertical grid test: time to turn [7]	Vertical grid test: total time to climb down [7]
C[S+]([O-])CCCCN=C=S (centres unmarked) [SFN (sulforaphane), 1-isothiocyanato-4-methylsulfinylbutane]	≤ 1	–	–	–	–	–	–	–	–	–	–	–	–	–	–	–	–	–	–
COc1ccccc1S(=O)(=O)/C=C/c1ccccc1Cl [VSC2, (E)-1-chloro-2-(2-(2-methoxyphenylsulfonyl)vinyl)benzene, reference compound]	–	1000 nM and 1200 nM	100.0	100	16.8	55.6	about 60%	low	≤ 10	54.9	cardiac toxicity	low	low	–	–	–	–	–	–
Cl.O=S(=O)(/C=C/c1ncccc1F)c1ccc(OCCCN2CCOCC2)cc1 [Compound 15, (E)-4-(3-(4-(2-(3-fluoropyridin-2-yl)vinylsulfonyl)phenoxy)propyl)morpholine hydrochloride]	–	–	–	–	–	–	–	–	≥ 10000	–	–	–	–	≥ 4	the staining became dark again	promotes the activation of Nrf2 in a concentration-dependent manner	increased the expression of antioxidant enzymes through Nrf2 activation in a concentration-dependent manner	reduced again to a level similar to that of the negative control group	reduced again to a level similar to that of the negative control group
